Test results: patent publication US10253002B2, “Compounds and methods of treating infections” (Neoculi Pty Ltd., priority 2013, dated 2019)

Columns and labels:
[1] = control strain Enterococcus faecalis ATCC 29212; cited from earlier work
[2] = tested on: cell wall synthesis in S. aureus ATCC 29213; experiment: Macromolecular synthesis assay: cell wall synthesis ([14C]N-acetylglucosamine); assay type: cell-based, Staphylococcus aureus
Experimental: Cells were grown at 35° C. overnight on Trypticase Soy agar. A colony from the plate was used to inoculate 10 ml of Mueller Hinton broth II (MHBII), and the culture was grown to early exponential growth phase (OD600==0.2 to 0.3) while incubating in a shaker at 35° C. and 200 rpm.
Bacterial cells in early exponential growth phase were transferred to M9 minimal medium and added to 1.5 mL eppendorf tubes (100 μL/tube) containing various concentrations of test compound or control antibiotics (5 μL) at 20× the final concentration in 100% DMSO as described above. Following a 5 min incubation at 37° C., [^14C]N-acetylglucosamine (0.4 μCi/reaction) was added to each tube and incubated for 45 min in a 37° C. heating block. Reactions were stopped through the addition of 100 μL of 8% SDS to each tube. Reactions were then heated at 95° C. for 30 min in a heating block, cooled, briefly centrifuged, and spotted onto pre-wet HA filters ([…]). After washing three times with 5 mL of 0.1% SDS, the filters were rinsed two times with 5 ml of deionized water, allowed to dry, and then counted using a Beckman LS3801 liquid scintillation counter.

[3] = tested on: methicillin-susceptible S. aureus ATCC 49775; experiment: Time-kill assays (microdilution and 10 ml macrodilution), Example 4; assay type: cell-based, Staphylococcus aureus
Experimental: Bactericidal activity in macrodilution assays was identified as a 3 log10 decrease from the initial inoculum size. Bacteria were cultured overnight at 37° C. on SBA. Colonies were suspended in broth and the turbidity was adjusted to a 0.5 McFarland standard to obtain a bacterial suspension of […]. Bacterial suspensions were incubated at 37° C. with shaking. Aliquots were removed at 0, 1, 2, 4, 8, 12, and 24 h after antimicrobial addition, diluted, plated onto SBA and incubated for 48 h at 37° C. for viable count determination. Turbidimetric growth curves for S. aureus were obtained for Microtiter plate assays by monitoring optical density changes using a Bio-Rad Benchmark Plus microplate spectrophotometer at 600 nm. Optical densities were measured at 0, 1, 2, 4, 8, 12, and 24 h after antimicrobial addition.

SMILES | Acceptable MIC range for Ampicillin [1] [µg/mL] | inhibition of cell wall synthesis ([2]; 4 fold the MIC) | inhibition of cell wall synthesis ([2]; 8 fold the MIC) [%] | bacterial growth, turbidimetric growth curve ([3]; ATCC 49775, 1× and 4× the MIC, microdilution, up to 24 h) | remained bactericidal until (then regrowth) ([3]; ATCC 49775, 10 mL macrodilution, 1× and 4× the MIC) [h] | bacterial regrowth observed at, after antimicrobial addition ([3]; ATCC 49775 time-kill) [h]
CC1(C)S[C@@H]2[C@H](NC(=O)[C@H](N)c3ccccc3)C(=O)N2[C@H]1C(=O)O [Ampicillin] | 0.5 to 2 |  |  |  |  | 
N=C(N/N=C/c1ccc(Cl)cc1)N/N=C/c1ccc(Cl)cc1 [NCL812, 1,3-bis[(E)-(4-chlorophenyl)methyleneamino]guanidine] |  | approximately 68% | ~52 | no visible bacterial growth | 8 to 12 | 12
